From patent publication US10280198B2, “Therapeutic agents for reducing parathyroid hormone levels” (KAI PHARMACEUTICALS, INC., priority 2009, dated 2019)
Read-outs that look alike come from different tables or passages of the source. Square brackets hold non-standard residues; d marks the D form. Peptide text beside a SMILES is read from it.

Columns and labels:
[1] = tested on: rat peritoneal mast cells; test: In vitro histamine induction in rat peritoneal mast cells; format: cell-based
Description: To further evaluate the relationship between compound structure and histamine release, a series of compounds was prepared and assessed for their ability to trigger induction of histamine in an in vitro assay using rat peritoneal mast cells. In this assay, compounds are incubated at 10 μM for 15 minutes at 37° C. with cells isolated from peritoneal lavage of SD rats. Following incubation, cell medium is collected and histamine is determined.
Accordingly, and as can be appreciated in view of the PTH data and the histamine data described hereinabove, in one embodiment, a compound that has activity to decrease PTH level in a subject in the absence of a histamine response is contemplated. In certain embodiments, absence of a histamine response intends a dose of the compound that produces a less than 10-fold, more preferably 8-fold, still more preferably 5-fold, and even still more preferably 3-fold, increase in histamine, measured in vitro in an assay as described herein, where the fold change is determined based on histamine levels before incubation with the compound and after 15 minutes incubation with compound. In a specific embodiment, the histamine response is determined in an in vitro assay using rat peritoneal mast cells isolated from peritoneal lavage of normal Sprague Dawley rats, and where the fold change is determined based on histamine levels before incubation with the compound and after 15 minutes incubation with compound. In the studies conducted herein, the in vitro evaluation of histamine release was performed using isolated rat peritoneal mast cells isolated by peritoneal lavage using cold HBSS+25 mM HEPES pH 7.4 containing heparin (5 u/mL). Cells were washed twice in stimulation buffer (HBSS+25 mM HEPES pH 7.4) and incubated with 10 μM of compound in stimulation buffer (HBSS+25 mM HEPES pH 7.4) for 15 minutes in a 96-well plate ([…]) at 37° C. Cell supernatant was analyzed for histamine using histamine EIA kit (Cayman #589651).
For in vitro evaluation of histamine release, isolated rat peritoneal mast cells were isolated by performing peritoneal lavage using cold HBSS+25 mM HEPES pH 7.4 containing heparin (5 u/mL). Cells were washed twice in stimulation buffer (HBSS+25 mM HEPES pH 7.4) and incubated with 10 μM of compound in stimulation buffer (HBSS+25 mM HEPES pH 7.4) for 15 minutes in a 96-well plate (10^6/well) at 37° C. Cell supernatant was analyzed for histamine using histamine EIA kit (Cayman #589651).

plasma PTH = test: In vivo PTH lowering after IV bolus in isoflurane-anesthetized normal Sprague Dawley rats; set-up: species or system rat; conditions: for % PTH reduction of baseline at 1 hour post IV administration of 0.5 mg/kg compound: isoflurane-anesthetized normal rats, 0.5 mg/kg IV; for 0.5 mg/kg IV bolus % PTH AUC of saline control: normal rats, AUC 1-4 h
Description: The peptides were administered intravenously at a dose of 0.5 mg/kg into isoflurane-anesthetized normal Sprague Dawley rats. A control group of rats was treated with saline. Blood was drawn prior to dosing and every hour for 4 hours. Rats were maintained under isoflurane anesthesia for the entire study. […] Percent PTH reduction was calculated according to the following formula: AUCcmpd treated/AUCsaline control*100.
An intravenous (IV) bolus of saline was used as a control. Plasma (K2EDTA) PTH levels were assessed prior to dosing and 1, 2, 3 and 4 hours after dosing. Rats were maintained under isoflurane anesthesia for the entire study. […] In FIG. 2B, PTH is shown as percent of the baseline pre-dose value.
A series of compounds having an L-amino acid residue substituted for a D-amino acid residue were prepared. The compounds were administered as an IV bolus to normal Sprague Dawley rats at a dose of 0.5 mg/kg. An intravenous (IV) bolus of saline was used as a control. […] Rats were maintained under isoflurane anesthesia for the entire study.

Structure (SMILES)	Histamine in vitro Fold change of non-treated at 10 uM [1] [fold]	% PTH reduction of baseline at 1 hour post IV administration of 0.5 mg/kg compound (plasma PTH; Table 2) [%]	0.5 mg/kg IV bolus % PTH AUC of saline control (plasma PTH; Table 2) [%]	0.5 mg/kg IV bolus % PTH AUC of saline control (plasma PTH; Table 6) [%]	Histamine in vitro Fold change of non-treated at 10 uM ([1]; Table 9, 10 μM, 15 minutes, 37° C.) [fold]
CC(=O)N[C@H](CS)C(=O)N[C@H](CCCNC(=N)N)C(=O)N[C@H](CCCNC(=N)N)C(=O)N[C@H](CCCNC(=N)N)C(=O)N[C@H](C)C(=O)N[C@H](C)C(=O)N[C@H](CCCNC(=N)N)C(N)=O [SEQ ID NO: 21, Ac-crrraar-NH2] (Ac-[dC][dR][dR][dR][dA][dA][dR]-NH2)	1.0	36	50		
CC(=O)N[C@H](CS)C(=O)N[C@H](C)C(=O)N[C@H](C)C(=O)N[C@H](CCCNC(=N)N)C(=O)N[C@H](CCCNC(=N)N)C(=O)N[C@H](CCCNC(=N)N)C(=O)N[C@H](CCCNC(=N)N)C(N)=O [SEQ ID NO: 22, Ac-caarrrr-NH2] (Ac-[dC][dA][dA][dR][dR][dR][dR]-NH2)	1.2	24	48		
CC[C@@H](C)[C@@H](NC(=O)[C@@H](CCCNC(=N)N)NC(=O)[C@@H](CCCNC(=N)N)NC(=O)[C@@H](CCCNC(=N)N)NC(=O)[C@@H](C)NC(=O)[C@@H](CS)NC(C)=O)C(=O)N[C@H](CCCNC(=N)N)C(N)=O [SEQ ID NO: 84, Ac-carrrir-NH2] (Ac-[dC][dA][dR][dR][dR][dI][dR]-NH2)	1.8			161	
CC(=O)N[C@H](CS)C(=O)N[C@H](C)C(=O)N[C@H](CCCNC(=N)N)C(=O)N[C@H](CCCNC(=N)N)C(=O)N[C@H](CCCNC(=N)N)C(=O)N[C@H](CC(C)C)C(=O)N[C@H](CCCNC(=N)N)C(N)=O [SEQ ID NO: 85, Ac-carrrlr-NH2] (Ac-[dC][dA][dR][dR][dR][dL][dR]-NH2)				140	2.5
CC(=O)N[C@H](CS)C(=O)N[C@H](C)C(=O)N[C@H](CCCNC(=N)N)C(=O)N[C@H](CCCNC(=N)N)C(=O)N[C@H](CCCNC(=N)N)C(=O)N[C@@H](C(=O)N[C@H](CCCNC(=N)N)C(N)=O)C(C)C [SEQ ID NO: 87, Ac-carrrvr-NH2] (Ac-[dC][dA][dR][dR][dR][dV][dR]-NH2)	1.2			79	
CC(=O)N[C@H](CS)C(=O)N[C@H](C)C(=O)N[C@H](CCCNC(=N)N)C(=O)N[C@H](CCCNC(=N)N)C(=O)N[C@H](CCCNC(=N)N)C(=O)N[C@H](CO)C(=O)N[C@H](CCCNC(=N)N)C(N)=O [SEQ ID NO: 92, Ac-carrrsr-NH2] (Ac-[dC][dA][dR][dR][dR][dS][dR]-NH2)	1.2			6	
CC(=O)N[C@H](CS)C(=O)NCC(=O)N[C@H](CCCNC(=N)N)C(=O)N[C@H](CCCNC(=N)N)C(=O)N[C@H](CCCNC(=N)N)C(=O)N[C@H](C)C(=O)N[C@H](CCCNC(=N)N)C(N)=O [SEQ ID NO: 95, Ac-cGrrrar-NH2] (Ac-[dC]G[dR][dR][dR][dA][dR]-NH2)	1.5			45	

The next lines start with results.

Histamine in vitro Fold change of non-treated at 10 uM [1] [fold]	Structure (SMILES)	% PTH reduction of baseline at 1 hour post IV administration of 0.5 mg/kg compound (plasma PTH; Table 2) [%]	0.5 mg/kg IV bolus % PTH AUC of saline control (plasma PTH; Table 2) [%]	0.5 mg/kg IV bolus % PTH AUC of saline control (plasma PTH; Table 6) [%]	Histamine in vitro Fold change of non-treated at 10 uM ([1]; Table 9, 10 μM, 15 minutes, 37° C.) [fold]
1.3	CC(=O)N[C@H](CS)C(=O)N[C@H](CCCNC(=N)N)C(=O)N[C@H](CCCNC(=N)N)C(=O)N[C@H](C)C(=O)N[C@H](C)C(=O)N[C@H](CCCNC(=N)N)C(=O)N[C@H](CCCNC(=N)N)C(N)=O [SEQ ID NO: 17, Ac-crraarr-NH2] (Ac-[dC][dR][dR][dA][dA][dR][dR]-NH2)	39	102		
1.4	CC(=O)N[C@H](CS)C(=O)N[C@H](CCCNC(=N)N)C(=O)N[C@H](C)C(=O)N[C@H](CCCNC(=N)N)C(=O)N[C@H](C)C(=O)N[C@H](CCCNC(=N)N)C(=O)N[C@H](CCCNC(=N)N)C(N)=O [SEQ ID NO: 18, Ac-crararr-NH2] (Ac-[dC][dR][dA][dR][dA][dR][dR]-NH2)	72	87		
1.0	CC(=O)N[C@H](CS)C(=O)N[C@H](CCCNC(=N)N)C(=O)N[C@H](C)C(=O)N[C@H](C)C(=O)N[C@H](CCCNC(=N)N)C(=O)N[C@H](CCCNC(=N)N)C(=O)N[C@H](CCCNC(=N)N)C(N)=O [SEQ ID NO: 24, Ac-craarrr-NH2] (Ac-[dC][dR][dA][dA][dR][dR][dR]-NH2)	8	9		
4.0	CC(=O)N[C@H](CS)C(=O)N[C@H](C)C(=O)N[C@H](CCCNC(=N)N)C(=O)N[C@H](CCCNC(=N)N)C(=O)N[C@H](CCCNC(=N)N)C(=O)N[C@H](Cc1ccccc1)C(=O)N[C@H](CCCNC(=N)N)C(N)=O [SEQ ID NO: 83, Ac-carrrfr-NH2] (Ac-[dC][dA][dR][dR][dR][dF][dR]-NH2)			177	
1.0	CC(=O)N[C@H](CS)C(=O)N[C@H](C)C(=O)N[C@H](CCCNC(=N)N)C(=O)N[C@H](CCCNC(=N)N)C(=O)N[C@H](CCCNC(=N)N)C(=O)N1CCC[C@@H]1C(=O)N[C@H](CCCNC(=N)N)C(N)=O [SEQ ID NO: 88, Ac-carrrpr-NH2] (Ac-[dC][dA][dR][dR][dR][dP][dR]-NH2)			76	
2.0	CC(=O)N[C@H](CS)C(=O)N[C@H](C)C(=O)N[C@H](CCCNC(=N)N)C(=O)N[C@H](CCCNC(=N)N)C(=O)N[C@H](CCCNC(=N)N)C(=O)N[C@H](Cc1c[nH]cn1)C(=O)N[C@H](CCCNC(=N)N)C(N)=O [SEQ ID NO: 89, Ac-carrrhr-NH2] (Ac-[dC][dA][dR][dR][dR][dH][dR]-NH2)			48	
0.9	CC(=O)N[C@H](CS)C(=O)N[C@H](C)C(=O)N[C@H](CCCNC(=N)N)C(=O)N[C@H](CCCNC(=N)N)C(=O)N[C@H](CCCNC(=N)N)C(=O)N[C@H](CCC(N)=O)C(=O)N[C@H](CCCNC(=N)N)C(N)=O [SEQ ID NO: 90, Ac-carrrqr-NH2] (Ac-[dC][dA][dR][dR][dR][dQ][dR]-NH2)			41	
1.7	CC(=O)N[C@H](CS)C(=O)N[C@H](C)C(=O)N[C@H](CCCNC(=N)N)C(=O)N[C@H](CCCNC(=N)N)C(=O)N[C@H](CCCNC(=N)N)C(=O)N[C@@H](C(=O)N[C@H](CCCNC(=N)N)C(N)=O)[C@H](C)O [SEQ ID NO: 91, Ac-carrrtr-NH2] (Ac-[dC][dA][dR][dR][dR][dT][dR]-NH2)			18	
0.9	CC(=O)N[C@H](CS)C(=O)N[C@H](C)C(=O)N[C@H](CCCNC(=N)N)C(=O)N[C@H](CCCNC(=N)N)C(=O)N[C@H](CCCNC(=N)N)C(=O)NCC(=O)N[C@H](CCCNC(=N)N)C(N)=O [SEQ ID NO: 93, Ac-carrrGr-NH2] (Ac-[dC][dA][dR][dR][dR]G[dR]-NH2)			5	
3.0	CC[C@@H](C)[C@@H](NC(=O)[C@@H](CS)NC(C)=O)C(=O)N[C@H](CCCNC(=N)N)C(=O)N[C@H](CCCNC(=N)N)C(=O)N[C@H](CCCNC(=N)N)C(=O)N[C@H](C)C(=O)N[C@H](CCCNC(=N)N)C(N)=O [SEQ ID NO: 96, Ac-cirrrar-NH2] (Ac-[dC][dI][dR][dR][dR][dA][dR]-NH2)			33	
